Data as given in patent publication US20100267561A1, “HERBICIDAL PYRIDAZINONE DERIVATIVES” (priority 2007, published 2010).

Assays:
Format in all cases: in vivo
canola (Brassica rapa) = assay: Test C pre-/postemergence plant response
How it was run: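 Pre- and postemergence treatment, visual 0–100 rating vs controls at 15–25 days.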

[1] = system: Virginia (V.) dayflower (Commelina virginica); assay: Test E pre-/postemergence plant response; details: scale 0 to 100
How it was run: (§1)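 Formulated in a non-phytotoxic solvent mixture containing surfactant, compound was applied to soil at planting or sprayed on emerged plants at the 1- to 4-leaf stage. Visual comparison with controls followed 14 to 21 days in the greenhouse; 0 = no effect, 100 = complete control.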

kochia (Kochia scoparia) = assay: Test E pre-/postemergence plant response; details: scale 0 to 100
How it was run: as §1

[2] = system: common sowthistle (Sonchus oleraceous); assay: Test E pre-/postemergence plant response; details: scale 0 to 100
How it was run: as §1

[3] = system: prickly sida (Sida spinosa); assay: Test E pre-/postemergence plant response; details: scale 0 to 100
How it was run: as §1

[4] = system: Russian thistle (Salsola kali); assay: Test E pre-/postemergence plant response; details: Preemergence, scale 0 to 100
How it was run: as §1

[5] = system: common ragweed (Ambrosia elation); assay: Test E pre-/postemergence plant response; details: scale 0 to 100
How it was run: as §1

[6] = Postemergence, 8 g ai/ha, scale 0 to 100, 0 no effect, 100 complete control
[7] = Postemergence, 16 g ai/ha, scale 0 to 100, 0 no effect, 100 complete control
[8] = Postemergence, 31 g ai/ha, scale 0 to 100, 0 no effect, 100 complete control
[9] = Postemergence, 62 g ai/ha, scale 0 to 100, 0 no effect, 100 complete control
[10] = Preemergence, 8 g ai/ha, scale 0 to 100 (0 no effect, 100 complete control)
[11] = Preemergence, 16 g ai/ha, scale 0 to 100 (0 no effect, 100 complete control)
[12] = Preemergence, 31 g ai/ha, scale 0 to 100 (0 no effect, 100 complete control)
[13] = Preemergence, 62 g ai/ha, scale 0 to 100, 0 no effect, 100 complete control

CCc1cc(-c2ccc(C(F)(F)F)cc2)nn1-c1c(OS(C)(=O)=O)cnn(C)c1=O [Compound 19]
0: Plant response rating, Canola (canola (Brassica rapa); [6]) | Plant response rating, Canola (canola (Brassica rapa); [7]) | Plant response rating, Canola (canola (Brassica rapa); [8]) | Plant response rating, Canola (canola (Brassica rapa); [9]) | Plant response rating, Canola (canola (Brassica rapa); [10]) | Plant response rating, Canola (canola (Brassica rapa); [11]) | Plant response rating, Canola (canola (Brassica rapa); [12]) | Plant response rating, Canola (canola (Brassica rapa); [13]) | Plant response rating, Dayflower, V. ([1]; 4 g ai/ha, Postemergence) | Plant response rating, Dayflower, V. ([1]; 8 g ai/ha, Preemergence) | Plant response rating, Dayflower, V. ([1]; 16 g ai/ha, Preemergence) | Plant response rating, Dayflower, V. ([1]; Postemergence, 8 g ai/ha) | Plant response rating, Dayflower, V. ([1]; Postemergence, 16 g ai/ha) | Plant response rating, Dayflower, V. ([1]; Postemergence, 31 g ai/ha) | Plant response rating, Dayflower, V. ([1]; Preemergence, 4 g ai/ha) | Plant response rating, Kochia (kochia (Kochia scoparia); 4 g ai/ha, Postemergence) | Plant response rating, Kochia (kochia (Kochia scoparia); 16 g ai/ha, Preemergence) | Plant response rating, Kochia (kochia (Kochia scoparia); 31 g ai/ha, Preemergence) | Plant response rating, Kochia (kochia (Kochia scoparia); Postemergence, 16 g ai/ha) | Plant response rating, Kochia (kochia (Kochia scoparia); Preemergence, 4 g ai/ha) | Plant response rating, Sowthistle ([2]; 4 g ai/ha, Postemergence) | Plant response rating, Sowthistle ([2]; Postemergence, 8 g ai/ha) | Plant response rating, Sowthistle ([2]; Postemergence, 16 g ai/ha) | Plant response rating, Sowthistle ([2]; Postemergence, 31 g ai/ha) | Plant response rating, Prickly Sida ([3]; 4 g ai/ha, Postemergence) | Plant response rating, Prickly Sida ([3]; 16 g ai/ha, Preemergence) | Plant response rating, Prickly Sida ([3]; 31 g ai/ha, Preemergence) | Plant response rating, Prickly Sida ([3]; Postemergence, 8 g ai/ha) | Plant response rating, Prickly Sida ([3]; Postemergence, 16 g ai/ha) | Plant response rating, Prickly Sida ([3]; Postemergence, 31 g ai/ha) | Plant response rating, Prickly Sida ([3]; Preemergence, 4 g ai/ha) | Plant response rating, Thistle, Russian ([4]; 31 g ai/ha) | Plant response rating, Ragweed ([5]; 4 g ai/ha, Postemergence) | Plant response rating, Ragweed ([5]; 16 g ai/ha, Preemergence) | Plant response rating, Ragweed ([5]; 31 g ai/ha, Preemergence) | Plant response rating, Ragweed ([5]; Postemergence, 8 g ai/ha) | Plant response rating, Ragweed ([5]; Postemergence, 16 g ai/ha) | Plant response rating, Ragweed ([5]; Postemergence, 31 g ai/ha) | Plant response rating, Ragweed ([5]; Preemergence, 4 g ai/ha)

CCc1cc(-c2ccc(C(F)(F)F)cc2)nn1-c1c(O)cnn(C)c1=O [Compound 11, 4-[5-ethyl-3-[4-(trifluoromethyl)phenyl]-1H-pyrazol-1-yl]-5-hydroxy-2-methyl-3(2H)-pyridazinone]
0: Plant response rating, Canola (canola (Brassica rapa); [6]) | Plant response rating, Canola (canola (Brassica rapa); [7]) | Plant response rating, Canola (canola (Brassica rapa); [8]) | Plant response rating, Canola (canola (Brassica rapa); [9]) | Plant response rating, Canola (canola (Brassica rapa); [10]) | Plant response rating, Canola (canola (Brassica rapa); [11]) | Plant response rating, Canola (canola (Brassica rapa); [12]) | Plant response rating, Canola (canola (Brassica rapa); [13]) | Plant response rating, Dayflower, V. ([1]; 4 g ai/ha, Postemergence) | Plant response rating, Dayflower, V. ([1]; 8 g ai/ha, Preemergence) | Plant response rating, Dayflower, V. ([1]; 16 g ai/ha, Preemergence) | Plant response rating, Dayflower, V. ([1]; 31 g ai/ha, Preemergence) | Plant response rating, Dayflower, V. ([1]; Postemergence, 8 g ai/ha) | Plant response rating, Dayflower, V. ([1]; Postemergence, 16 g ai/ha) | Plant response rating, Dayflower, V. ([1]; Postemergence, 31 g ai/ha) | Plant response rating, Dayflower, V. ([1]; Preemergence, 4 g ai/ha) | Plant response rating, Kochia (kochia (Kochia scoparia); 4 g ai/ha, Postemergence) | Plant response rating, Kochia (kochia (Kochia scoparia); 16 g ai/ha, Preemergence) | Plant response rating, Kochia (kochia (Kochia scoparia); 31 g ai/ha, Preemergence) | Plant response rating, Kochia (kochia (Kochia scoparia); Postemergence, 8 g ai/ha) | Plant response rating, Kochia (kochia (Kochia scoparia); Postemergence, 16 g ai/ha) | Plant response rating, Kochia (kochia (Kochia scoparia); Postemergence, 31 g ai/ha) | Plant response rating, Kochia (kochia (Kochia scoparia); Preemergence, 4 g ai/ha) | Plant response rating, Sowthistle ([2]; 4 g ai/ha, Postemergence) | Plant response rating, Sowthistle ([2]; 16 g ai/ha, Preemergence) | Plant response rating, Sowthistle ([2]; Postemergence, 8 g ai/ha) | Plant response rating, Sowthistle ([2]; Postemergence, 16 g ai/ha) | Plant response rating, Sowthistle ([2]; Postemergence, 31 g ai/ha) | Plant response rating, Prickly Sida ([3]; 4 g ai/ha, Postemergence) | Plant response rating, Prickly Sida ([3]; 16 g ai/ha, Preemergence) | Plant response rating, Prickly Sida ([3]; 31 g ai/ha, Preemergence) | Plant response rating, Prickly Sida ([3]; Postemergence, 8 g ai/ha) | Plant response rating, Prickly Sida ([3]; Postemergence, 16 g ai/ha) | Plant response rating, Prickly Sida ([3]; Postemergence, 31 g ai/ha) | Plant response rating, Prickly Sida ([3]; Preemergence, 4 g ai/ha) | Plant response rating, Thistle, Russian ([4]; 31 g ai/ha) | Plant response rating, Ragweed ([5]; 4 g ai/ha, Postemergence) | Plant response rating, Ragweed ([5]; 16 g ai/ha, Preemergence) | Plant response rating, Ragweed ([5]; 31 g ai/ha, Preemergence) | Plant response rating, Ragweed ([5]; Postemergence, 8 g ai/ha) | Plant response rating, Ragweed ([5]; Postemergence, 16 g ai/ha) | Plant response rating, Ragweed ([5]; Postemergence, 31 g ai/ha) | Plant response rating, Ragweed ([5]; Preemergence, 4 g ai/ha)

Cc1cc(-c2ccc(Cl)cc2)nn1-c1c(OC(=O)C(C)C)cnn(C)c1=O [Compound 34]
0: Plant response rating, Canola (canola (Brassica rapa); [10]) | Plant response rating, Canola (canola (Brassica rapa); [11]) | Plant response rating, Canola (canola (Brassica rapa); [12]) | Plant response rating, Canola (canola (Brassica rapa); [13]) | Plant response rating, Dayflower, V. ([1]; 16 g ai/ha, Preemergence) | Plant response rating, Dayflower, V. ([1]; 31 g ai/ha, Preemergence) | Plant response rating, Dayflower, V. ([1]; 62 g ai/ha, Preemergence) | Plant response rating, Dayflower, V. ([1]; Postemergence, 8 g ai/ha) | Plant response rating, Dayflower, V. ([1]; Postemergence, 16 g ai/ha) | Plant response rating, Dayflower, V. ([1]; Postemergence, 31 g ai/ha) | Plant response rating, Dayflower, V. ([1]; Postemergence, 62 g ai/ha) | Plant response rating, Kochia (kochia (Kochia scoparia); 16 g ai/ha, Preemergence) | Plant response rating, Kochia (kochia (Kochia scoparia); 31 g ai/ha, Preemergence) | Plant response rating, Kochia (kochia (Kochia scoparia); 62 g ai/ha, Preemergence) | Plant response rating, Sowthistle ([2]; 16 g ai/ha, Preemergence) | Plant response rating, Sowthistle ([2]; 31 g ai/ha, Preemergence) | Plant response rating, Sowthistle ([2]; 62 g ai/ha, Preemergence) | Plant response rating, Sowthistle ([2]; Postemergence, 8 g ai/ha) | Plant response rating, Sowthistle ([2]; Postemergence, 16 g ai/ha) | Plant response rating, Sowthistle ([2]; Postemergence, 31 g ai/ha) | Plant response rating, Sowthistle ([2]; Postemergence, 62 g ai/ha) | Plant response rating, Prickly Sida ([3]; 16 g ai/ha, Preemergence) | Plant response rating, Prickly Sida ([3]; 31 g ai/ha, Preemergence) | Plant response rating, Prickly Sida ([3]; 62 g ai/ha, Preemergence) | Plant response rating, Prickly Sida ([3]; Postemergence, 8 g ai/ha) | Plant response rating, Prickly Sida ([3]; Postemergence, 16 g ai/ha) | Plant response rating, Prickly Sida ([3]; Postemergence, 31 g ai/ha) | Plant response rating, Prickly Sida ([3]; Postemergence, 62 g ai/ha) | Plant response rating, Thistle, Russian ([4]; 16 g ai/ha) | Plant response rating, Thistle, Russian ([4]; 31 g ai/ha) | Plant response rating, Thistle, Russian ([4]; 62 g ai/ha)
